Reference: patent US20130137767A1, “Methods and Compositions for Treating Arthritis with Docosahexaenoic Acid” (DSM IP ASSETS B.V., priority 2010, published 2013)

System: Collagen-Induced Arthritis (CIA)
Assay: Collagen-Induced Arthritis, EE vs. TG (Example 2): clinical arthritis severity and incidence
Assay type: in vivo, Male DBA/1O1aHsd mice
Conditions: for incidence of disease: day 45
Excerpt: The anti-arthritic activity of DHA, DHA/DPAn6 and DHA/EPA, administered as EE or triglyceride oils (TG), in a chronic mouse model of inflammation, Collagen-Induced Arthritis (CIA), was studied. Methods used in this study were similar to those described in Example 1 (CIA-EE Study). Study groups consisted of: Male DBA/1O1aHsd mice were enrolled, quarantined, and feed study diets following the protocols described in Example 1 (CIA-EE Study). EE and TG oils were blended into the base diet to provide 2500 mg/kg PUFA per day (HED approximately 12 g/day). A single dose of PUFA per day (HED approximately 5 g/day). The 1000 mg/kg DHA-EE dose was equivalent to the amount of DHA administered in the DHA/EPA-EE blend. The fat blend the 2500 mg/kg EE diets consisted of approximately: 1 part flax, 12 parts HCOC and 23 parts HO-SAFF; 1000 mg/kg EE diet: 1 part flax, 12 parts HCOC and 32 parts HO-SAFF; 2500 mg/kg DHASCO® oil diet: 1 part flax, 8 parts HCOC, 17 parts HO-SAFF and 15 parts soybean oil; 2500 mg/kg DHA-S oil diet: 1 part flax, 5 parts HCOC, 16 parts HO-SAFF and 6 parts soybean oil. 2500 mg/kg DHA/EPA (Nordic Naturals fish oil) diet: 1 part flax, 21 parts HCOC, 18 parts HO-SAFF and 13 parts soybean oil. The monounsaturate control animals received a fat blend of 1 part flax, 7 parts HCOC and 25 parts HO-SAFF. All study diets provided a total of 7% fat. Animals in the No Disease control and Dexamethasone groups were fed the diet containing OA-EE. Mice received collagen injections on day 0 and day 21, as described previously. Blood samples were collected at day 21 and day 45. At day 45, joints were collected for histology and pathology. Data was analyzed and compared by one-way ANOVA using the Bonferroni post-test to compare treatment groups to respective placebo control and to make comparisons between treatment groups (GraphPad, Prism, Version 4.0). Effects were considered to be statistically significant at p<0.05. Arthritis severity was assessed from day 18 to 45; a score of 0 represented an animal devoid of clinical arthritis symptoms and a score of 5 represented advanced clinical arthritis. Scores from 0-5 (most severe) were assigned to each digit on the fore and hind limbs based on erythema, swelling and mobility the mean arthritis severity per animal was determined.

Structure (SMILES): CC/C=C\C/C=C\C/C=C\C/C=C\C/C=C\C/C=C\CCC(=O)OCC [DHA-EE]
- arthritis severity score as area under the curve (AUC) (1000 mg/kg, days 18-45, vs OA-EE (placebo) control, FIG. 8B): significantly reduced arthritis
- arthritis severity, comparison between treatment groups (2500 mg/kg PUFA, Dexamethasone 0.1 mg/kg): more potent than DHA-EPA-EE
- arthritis severity score as area under the curve (AUC) (2500 mg/kg PUFA, days 18-45, vs monounsaturated or OA-EE (placebo) control, FIG. 8A/B): significantly reduced arthritis
- incidence of disease (1000 mg/kg, FIG. 9B): 73%
- incidence of disease (2500 mg/kg PUFA, FIG. 9A/B): 60%
- arthritis severity score (days 18-45, FIG. 7A/B, dose not stated): reduced arthritis severity
